These results are taken from publication PMC8482766 (Journal of Medicinal Chemistry, 2021).

Each structure is given as a SMILES string. Values after ≈ are worked out from the molar mass of the structure shown. Like-named read-outs stand apart in the source and are kept apart here.

For data set [1], the system named is KINOMEscan panel (DiscoverX) of >400 wild-type human kinases. In kind it is binding. The conditions noted are these: inhibitor concentration = 1 μM.
The target in data set [2] is T1, DYRK1A (Homo sapiens, UniProt Q13627). The class given is binding. Particulars: for LE: LE = 1.4(pIC50)/nonhydrogen atoms; for LLE: LLE = pIC50 – clog P.
Data set [3] can be described thus: Thermodynamic solubility at pH 6.8. The class given is physicochemical.
Data set [4] has as its system in-house panel of 48 representative kinases. The class given is binding.
A short description of data set [5]: In vivo pharmacokinetic study, i.v. in Sprague–Dawley rats. The conditions noted are these: 1 mg/kg i.v.
The test system of the next data set is P-gp (human MDR1). Nature of the data set: MDCK-MDR1 permeability and P-gp efflux assay. The class given is in vitro ADME, canine. The conditions noted are these: dog, MDCK-MDR1.
Data set [6] has as its system Madin–Darby canine kidney cells transfected with the human MDR1 gene (MDCK-MDR1). Nature of the data set: MDCK-MDR1 permeability and P-gp efflux assay. In kind it is in vitro ADME. Particulars: MDCK-MDR1, conclusion in words.
For data set [7], the target named is T1, DYRK1A. In kind it is binding. Particulars: SPR, dissociation rate (off-rate).
Where [8] appears, read: relative to reference compound/matched-molecular pair 11.

In general, solubility refers to the dissolved amount per volume that the medium holds. Lower therefore signals a poorly soluble substance. By Papp A→B is commonly meant the apparent permeability from the apical to the basolateral side of a cell layer. Low readings indicate poor permeation, high ones ready permeation. What is called Papp B→A is how fast a substance crosses the layer from the basolateral side.

As to `C[C@H]1CCN(c2nccc(-c3cnn4ncccc34)n2)C1` [Compound 28, 3-[2-[(3S)-3-Methylpyrrolidin-1-yl]pyrimidin-4-yl]pyrazolo[1,5-b]pyridazine], the “S score (35)” value in data set [1] is reported as 0.050. In the case of `c1cnn2ncc(-c3ccnc(N4CCC45COC5)n3)c2c1` [Compound 22, 1-(4-Pyrazolo[1,5-b]pyridazin-3-yl-pyrimidin-2-yl)-6-oxa-1-azaspiro[3.3]heptane], the “S score (35)” value in data set [1] turned out to be 0.042. On the same count and under the same terms, under `CN(c1nccc(-c2cnn3ncccc23)n1)C1CC1` [Compound 12, N-Cyclopropyl-N-methyl-4-pyrazolo[1,5-b]pyridazin-3-yl-pyrimidin-2-amine] stands 0.013; under `CC1CCCN1c1nccc(-c2cnn3ncccc23)n1` (stereo not shown) [Compound 24, 3-[2-(2-Methylpyrrolidin-1-yl)pyrimidin-4-yl]pyrazolo[1,5-b]pyridazine], 0.004. Regarding `Cc1nn2ncccc2c1-c1ccnc(N(C)C)n1` [Compound 60], the “DYRK1A binding affinity (in words)” value on DYRK1A [2] (TR-FRET assay) is reported as “no binding affinity”. As to `COc1ccnn2ncc(-c3ccnc(N(C)C)n3)c12` [Compound 66, 4-(4-Methoxypyrazolo[1,5-b]pyridazin-3-yl)-N,N-dimethyl-pyrimidin-2-amine], the “fold reduction in DYRK1A binding affinity” value (“fold reduction” below) at DYRK1A [2] (setting [8]) is recorded as about 2 fold.

Regarding `F[C@@H]1CCN(c2nccc(-c3cnn4ncccc34)n2)C1` [Compound 31, 3-[2-[(3R)-3-Fluoropyrrolidin-1-yl]pyrimidin-4-yl]pyrazolo[1,5-b]pyridazine], in data set [1], the “S score (35)” value is recorded as 0.011.

`Cc1cccc(N(C)c2nccc(-c3cnn4ncccc34)n2)c1` [Compound 8b] yielded a solubility in data set [3] of 10 µg/mL (≈ 31.6 µM).

Consider `C[C@@H]1CCN(c2nccc(-c3cnn4ncccc34)n2)C1` [Compound 29, 3-[2-[(3R)-3-Methylpyrrolidin-1-yl]pyrimidin-4-yl]pyrazolo[1,5-b]pyridazine], for which the “S score (35)” value in data set [1] is 0.035. As to `CN(C)c1cccc(-c2cnn3ncccc23)n1` [Compound 111], at DYRK1A [2], the LE amounted to 0.47 and the LLE is recorded as 3.79. In addition, the “fold reduction” value on DYRK1A [2] (setting [8]) is “approximately 10 fold”. Consider `N[C@H]1CCN(c2nccc(-c3cnn4ncccc34)n2)C1` [Compound 33, (3S)-1-(4-pyrazolo[1,5-b]pyridazin-3-yl-pyrimidin-2-yl)pyrrolidin-3-amine], for which the “S score (35)” value in data set [1] is listed as 0.027. With `CN(C)c1nccc(-c2c[nH]c3ncccc23)n1` [Compound 78], the “selectivity by thermal stabilization (in words)” value in data set [4] is “cross-reacted with several additional kinases including the NAK kinases AAK1 and BMP2K”. On to `CC(C)N(c1nccc(-c2cnn3ncccc23)n1)C1CC1` [Compound 13], for which, on DYRK1A [2] (matched-molecular pairs 12 and 13), the “fold reduction” value is reported as 10 fold. For `Cc1ccnn2ncc(-c3ccnc(N(C)C)n3)c12` [Compound 64], the “fold reduction” value at DYRK1A [2] (setting [8]) is about 10 fold. On the same count and under the same terms, under `Cc1ccc2c(-c3ccnc(N(C)C)n3)cnn2n1` [Compound 62] stands over 10 fold; under `COc1ccc2c(-c3ccnc(N(C)C)n3)cnn2n1` [Compound 65], over 10 fold. `CN(C)c1nccc(-c2cnn3ncccc23)n1` [Compound 11, N,N-Dimethyl-4-pyrazolo[1,5-b]pyridazin-3-yl-pyrimidin-2-amine]: in data set [5], the adverse effects result is “no adverse effects reported”. Also, the “S score (35)” value in data set [1] is 0.027. For the same compound, in the data set with P-gp (human MDR1), the Papp A→B stood at 71.4 ± 0.65 ×10⁻⁶ cm/s and the apparent permeability from basolateral to apical (Papp B→A) was 58.7 ± 1.45 ×10⁻⁶ cm/s. The P-gp substrate result in data set [6] is given as “not a P-gp substrate”. The compound `CN(C)c1ncc(F)c(-c2cnn3ncccc23)n1` [Compound 95, 5-Fluoro-N,N-dimethyl-4-pyrazolo[1,5-b]pyridazin-3-yl-pyrimidin-2-amine] showed a kd at DYRK1A [7] of 0.06 s^–1.

As to `CN(C)c1cc(-c2cnn3ncccc23)ccn1` [Compound 113], at DYRK1A [2], the LE was found to be 0.48 and the LLE was determined as 4.31. Besides, the “fold reduction” value on DYRK1A [2] (setting [8]) is 10 fold. Take `Cc1cnn2ncc(-c3ccnc(N(C)C)n3)c2c1` [Compound 63, N,N-Dimethyl-4-(5-methylpyrazolo[1,5-b]pyridazin-3-yl)pyrimidin-2-amine]: the “S score (35)” value in data set [1] is recorded as 0.027.
